Converted amounts (≈) assume the structure as drawn. Where two headings read alike, the source gives them in different places.
Test: Saturation solubility of enavogliflozin in aqueous excipient solutions (HPLC)
Assay type: physicochemical
Conditions: for solubility at 12 h: aqueous excipient solution (excipient in purified water), thermodynamic from solid
Experimental: According to Table 1 below, enavogliflozin in the amount corresponding to each standard solution and 70 mL of methanol were placed in a volumetric flask and then completely dissolved under ultrasonic agitation. Methanol was added thereto to adjust the total volume to 100 mL. The resulting solution was taken and filtered through a 0.45 µm RC (Regenerated Cellulose) membrane filter. The first 2 mL was discarded and then the filtrate was used as a standard solution.
Each excipient was dissolved in 5 mL of purified water at the maximum concentration recommended by the FDA (Table 2) and then enavogliflozin was added thereto until it was no longer dissolved, followed by stirring for approximately 12 hours. After confirming no dissolution after 12 hours, each sample was centrifuged at 4000 rpm for 30 minutes and the clear supernatant (1 mL) was taken and then diluted with methanol. The resulting solution was filtered through a 0.45 µm RC membrane filter. The first 2 mL was discarded and then the filtrate was used as a test solution.
The peak areas of the standard and test solutions were analyzed under the following HPLC conditions. • Detector: UV spectrophotometer (wavelength: 225 nm) • Column: Capcellpak C18 (4.6 x 250 mm, 5 µm) • Column temperature: about 35°C • Sample temperature: about 25°C • Mobile phase: Buffer solution : acetonitrile = 25 : 75 (v/v) (Buffer solution: prepared by dissolving 100 µl of trifluoroacetic acid in 1000 mL of water) • Flow rate: 1.0 mL/min • Injection volume: 10 µL • Analysis time: about 20 minutes
Polyoxyl 40 stearate (Myrj™ S40) was dissolved in 5 mL of purified water at the concentration of 7.0 w/v% and then enavogliflozin was added thereto until it was no longer dissolved, followed by stirring for approximately 12 hours. Thereafter, the degree of solubilization was evaluated in the same manner as in Example 1.

SMILES: OC[C@H]1O[C@@H](c2cc(Cc3ccc(C4CC4)cc3)c(Cl)c3c2CCO3)[C@H](O)[C@@H](O)[C@@H]1O [enavogliflozin, Enavogliflozin]
- Solubility for unit concentration (Aqualon™ CMC 0.50 %w/v): 0.59 mg/%
- Solubility for unit concentration (Cavasol™ W8 1.50 %w/v): 0.72 mg/%
- Solubility for unit concentration (EtOH 0.50 %w/v): 0.51 mg/%
- Solubility for unit concentration (Glycerol 2.25 %w/v): 0.11 mg/%
- Solubility for unit concentration (HPMC 606 0.60 %w/v): 0.56 mg/%
- Solubility for unit concentration (Kollidon™ K30 15.00 %w/v): 0.24 mg/%
- Solubility for unit concentration (Kollidon™ K90 1.50 %w/v): 0.41 mg/%
- Solubility for unit concentration (Kolliphor™ EL 5.00 %w/v): 3.37 mg/%
- Solubility for unit concentration (Kolliphor™ HS 15 0.25 %w/v): 4.09 mg/%
- Solubility for unit concentration (Kolliphor™ RH 40 1.00 %w/v): 3.64 mg/%
- Solubility for unit concentration (Kollisolv™ PG 1.50 %w/v): 0.18 mg/%
- Solubility for unit concentration (PEG 400 4.00 %w/v): 0.08 mg/%
- Solubility for unit concentration (TPGS 0.50 %w/v): 4.63 mg/%
- Solubility for unit concentration (Tween™ 20 0.05 %w/v): 7.21 mg/%
- Solubility for unit concentration (Tween™ 80 4.00 %w/v): 3.95 mg/%
- solubility at 12 h (aqueous with cosolvent or surfactant or cyclodextrin, Aqualon™ CMC 0.50 %w/v in purified water, read-out: Saturation solubility): 300 µg/mL (≈ 671 µM)
- solubility at 12 h (aqueous with cosolvent or surfactant or cyclodextrin, Cavasol™ W8 1.50 %w/v in purified water, read-out: Saturation solubility): 1090 µg/mL (≈ 2440 µM)
- solubility at 12 h (aqueous with cosolvent or surfactant or cyclodextrin, HPMC 606 0.60 %w/v in purified water, read-out: Saturation solubility): 330 µg/mL (≈ 738 µM)
- solubility at 12 h (aqueous with cosolvent or surfactant or cyclodextrin, Kollidon™ K30 15.00 %w/v in purified water, read-out: Saturation solubility): 3600 µg/mL (≈ 8060 µM)
- solubility at 12 h (aqueous with cosolvent or surfactant or cyclodextrin, Kollidon™ K90 1.50 %w/v in purified water, read-out: Saturation solubility): 620 µg/mL (≈ 1390 µM)
- solubility at 12 h (aqueous with cosolvent or surfactant or cyclodextrin, Kolliphor™ EL 5.00 %w/v in purified water, read-out: Saturation solubility): 16800 µg/mL (≈ 37700 µM)
- solubility at 12 h (aqueous with cosolvent or surfactant or cyclodextrin, Kolliphor™ EL 5.0 w/v% in purified water, read-out: Saturation solubility of enavogliflozin): 16800 µg/mL (≈ 37700 µM)
- solubility at 12 h (aqueous with cosolvent or surfactant or cyclodextrin, Kolliphor™ HS 15 0.25 %w/v in purified water, read-out: Saturation solubility): 1020 µg/mL (≈ 2280 µM)
- solubility at 12 h (aqueous with cosolvent or surfactant or cyclodextrin, Kolliphor™ RH 40 1.00 %w/v in purified water, read-out: Saturation solubility): 3640 µg/mL (≈ 8140 µM)
- solubility at 12 h (aqueous with cosolvent or surfactant or cyclodextrin, Polyoxyl 40 stearate 7.0 w/v% in purified water, read-out: Saturation solubility of enavogliflozin): 32000 µg/mL (≈ 71600 µM)
- solubility at 12 h (aqueous with cosolvent or surfactant or cyclodextrin, TPGS 0.50 %w/v in purified water, read-out: Saturation solubility): 2310 µg/mL (≈ 5170 µM)
- solubility at 12 h (aqueous with cosolvent or surfactant or cyclodextrin, Tween™ 20 0.05 %w/v in purified water, read-out: Saturation solubility): 360 µg/mL (≈ 806 µM)
- solubility at 12 h (aqueous with cosolvent or surfactant or cyclodextrin, Tween™ 80 4.00 %w/v in purified water, read-out: Saturation solubility): 15800 µg/mL (≈ 35400 µM)
- solubility at 12 h (water, EtOH 0.50 %w/v in purified water, read-out: Saturation solubility): 260 µg/mL (≈ 582 µM)
- solubility at 12 h (water, Glycerol 2.25 %w/v in purified water, read-out: Saturation solubility): 240 µg/mL (≈ 537 µM)
- solubility at 12 h (water, Kollisolv™ PG 1.50 %w/v in purified water, read-out: Saturation solubility): 270 µg/mL (≈ 604 µM)
- solubility at 12 h (water, PEG 400 4.00 %w/v in purified water, read-out: Saturation solubility): 330 µg/mL (≈ 738 µM)

— EP4631498A1, “EYE DROP-TYPE PHARMACEUTICAL COMPOSITION CONTAINING ENVOGLIFLOZIN” (Daewoong Therapeutics Inc., priority 2022, dated 2024)
